US3991187A, “Medicinal compositions and methods of use involving phosphoric acid esters” (Aktiebolaget Leo, priority 1971, dated 1976)

Assays:
[1] = test system: prostaglandins E1, E2 F1α and F2α; test: PG-inhibitory effect on the isolated gerbil colon; assay type: cell-based, Gerbils (Meriones unguiculatus); details: gerbil colon
Description: The PG-inhibitory effect of esters of the present invention on the gerbil colon are determined using the general technique described by Eakins, Miller & Karim (J. Pharm. Exp. Ther. 176:441, 1971). Gerbils (Meriones unguiculatus) of own breed, both sexes, weighing 50-80 g are used. The animal is stunned, colon ascendens immediately removed, and a 2-3 cm piece mounted in a 6 ml bath containing a modified de Jalon solution at 28° C and continuously oxygenated. Contractions of the organ are registered either isotonically or isometrically. When testing the inhibitory effect of a compound this is added to the bath 2 min before the addition of prostaglandin. […] Several concentrations of each antagonist are used.

[2] = test system: Slow Reacting Substance (SRS); test: antagonism to Slow Reacting Substance on the isolated guinea-pig ileum (Mathe & Strandberg); assay type: cell-based
Description: The antagonism to Slow Reacting Substance (SRS) is determined on the isolated guinea-pig ileum as described by Mathe & Strandberg (Acta physiol. scand. 82:460, 1971). Purified SRS is obtained from cat paws perfused with compound 48/80 (Strandberg & Uvnas: Acta physiol. scand. 82:358, 1971). Sodium bis(4-(3-oxo-3-(2,4,6-trihydroxyphenyl)propyl)phenyl) phosphate was tested in this system in several concentrations.

PGE1 = test: prostaglandin-stimulated glycolysis of the prepubertal ovary (lactic acid production); assay type: cell-based, rats; details: compared with the compound giving 50% reduction at 50-100 μg/ml
Description: The action of esters of the present invention on the prostaglandin-stimulated glycolysis of the prepubertal ovary is investigated. The method used has been described in detail by Perklev & Ahren (Life Sciences Part I, 10:1387, 1971). In these experiments ovaries from prepubertal rats are removed and placed in Erlenmeyer flasks containing compounds of this invention dissolved in Krebs biocarbonate buffer. After that the ovaries have been preincubated during 60 min. at 37° C in this medium, they are blotted on filter paper and then washed for 2 min. in plain buffer. The ovaries are then transferred to a new incubation medium containing prostaglandins (PG) dissolved in Krebs bicarbonate buffer and incubated at 37° C for 2 hrs with continuous shaking. The ovarian glycolysis is then determined by measuring the concentration of lactic acid in the incubation medium. When polyphloretin phosphate (PPP) is present in the preincubation medium in a concentration of 500 μg/ml, the subsequent ovarian lactic acid production produced by PGE1 is reduced to about 50% of that obtained with ovaries preincubated in plain buffer. When sodium bis(4-(3-(2,4,6-trihydroxyphenyl)propyl)phenyl)phosphate is investigated in the same experimental system, a 50% reduction of the lactate production is seen when only 50-100 μg/ml of the compound is present in the preincubation medium.

| SMILES | selective inhibitory effects compared with PPP [1] | inhibition of SRS [2] | prostaglandin inhibiting activity (PGE1) |
| --- | --- | --- | --- |
| O=C(CCc1cccc(OP(=O)(O)Oc2cccc(CCC(=O)c3ccc(OP(=O)(O)O)cc3)c2)c1)c1ccc(OP(=O)(O)O)cc1 [bis(dihydrogen phosphate) of bis(3-(3-(4-hydroxyphenyl)-3-oxopropyl)phenyl hydrogen phosphate] | equal to or superior to that of PPP | inhibit SRS | same order |
| O=C(C=Cc1ccc(O)cc1)c1c(O)cc(OP(=O)([O-])Oc2cc(O)c(C(=O)C=Cc3ccc(O)cc3)c(O)c2)cc1O.[Na+] [sodium bis(3,5-dihydroxy-4-(3-(4-hydroxyphenyl)-acryloyl)phenyl) phosphate] |  | inhibit SRS | same order |
| O=C(CCc1cccc(OP(=O)([O-])Oc2cccc(CCC(=O)c3c(O)cc(O)cc3O)c2)c1)c1c(O)cc(O)cc1O.[Na+] [sodium bis(3-(3-(2,4,6-trihydroxyphenyl)-3-oxopropyl)phenyl) phosphate] | equal to or superior to that of PPP | inhibit SRS | same order |
| O=C(CCc1cccc(OP(=O)([O-])Oc2cccc(CCC(=O)c3ccc(O)cc3O)c2)c1)c1ccc(O)cc1O.[Na+] [sodium bis(3-(3-(2,4-dihydroxyphenyl)-3-oxopropyl)phenyl) phosphate] | equal to or superior to that of PPP | inhibit SRS | same order |
| Nc1ccccc1C(=O)CCc1cccc(OP(=O)([O-])Oc2cccc(CCC(=O)c3ccccc3N)c2)c1.[Na+] [sodium bis(3-(3-(2-aminophenyl)-3-oxopropyl)phenyl) phosphate] | equal to or superior to that of PPP |  |  |
| O=C(CCc1cccc(OP(=O)([O-])Oc2cccc(CCC(=O)c3ccccc3O)c2)c1)c1ccccc1O.[Na+] [sodium bis(3-(3-(2-hydroxyphenyl)-3-oxopropyl)phenyl) phosphate] | equal to or superior to that of PPP | inhibit SRS |  |
| COc1ccc(CCC(=O)c2cccc(OP(=O)([O-])Oc3cccc(C(=O)CCc4ccc(OC)c(CN(C)C)c4)c3)c2)cc1CN(C)C.[Na+] [sodium bis(3-(3-(3-dimethylaminomethyl-4-methoxyphenyl)propionyl)phenyl) phosphate] | equal to or superior to that of PPP |  |  |
| CN(C)C(=O)Cc1ccc(C(=O)CCc2cccc(OP(=O)([O-])Oc3cccc(CCC(=O)c4ccc(CC(=O)N(C)C)cc4)c3)c2)cc1.[Na+] [sodium bis(3-(3-(4-(N,N-dimethylcarbamoylmethyl)phenyl)-3-oxopropyl)phenyl)phosphate] | equal to or superior to that of PPP |  |  |
| CCN(CC)c1ccc(CCC(=O)c2cccc(OP(=O)([O-])Oc3cccc(C(=O)CCc4ccc(N(CC)CC)cc4)c3)c2)cc1.[Na+] [sodium bis(3-(3-(4-diethylaminophenyl)propionyl)phenyl) phosphate] | equal to or superior to that of PPP |  |  |
| COc1cc(CCC(=O)c2cccc(OP(=O)([O-])Oc3cccc(C(=O)CCc4ccc(O)c(OC)c4)c3)c2)ccc1O.[Na+] [sodium bis(3-(3-(4-hydroxy-3-methoxyphenyl)propionyl)phenyl) phosphate] | equal to or superior to that of PPP | inhibit SRS |  |
| O=C(CCc1cccc(OP(=O)(O)Oc2cccc(CCC(=O)c3ccc(O)cc3)c2)c1)c1ccc(O)cc1 [sodium bis(3-(3-(4-hydroxyphenyl-3-oxopropyl)phenyl) phosphate] | equal to or superior to that of PPP | inhibit SRS | same order |
| COC(=O)Cc1ccc(C(=O)CCc2cccc(OP(=O)([O-])Oc3cccc(CCC(=O)c4ccc(CC(=O)OC)cc4)c3)c2)cc1.[Na+] [sodium bis(3-(3-(4-methoxycarbonylmethylphenyl)-3-oxo-propyl)phenyl) phosphate] | equal to or superior to that of PPP |  |  |
| Nc1ccccc1C(=O)CCc1ccc(OP(=O)([O-])Oc2ccc(CCC(=O)c3ccccc3N)cc2)cc1.[Na+] [sodium bis(4-(3-(2-aminophenyl)-3-oxopropyl)phenyl) phosphate] | equal to or superior to that of PPP |  |  |
| Cc1cc(OP(=O)([O-])Oc2ccc(CCC(=O)c3ccccc3O)c(C)c2)ccc1CCC(=O)c1ccccc1O.[Na+] [sodium bis(4-(3-(2-hydroxyphenyl)-3-oxopropyl)-3-methylphenyl) phosphate] | equal to or superior to that of PPP | inhibit SRS |  |
| O=C(CCc1ccc(OP(=O)([O-])Oc2ccc(CCC(=O)c3ccccc3O)cc2)cc1)c1ccccc1O.[Na+] [sodium bis(4-(3-(2-hydroxyphenyl)-3-oxopropyl)phenyl)phosphate] | equal to or superior to that of PPP | inhibit SRS |  |
| Nc1ccc(C(=O)CCc2ccc(OP(=O)(O)Oc3ccc(CCC(=O)c4ccc(N)cc4)cc3)cc2)cc1 [sodium bis(4-(3-(4-aminophenyl)-3-oxopropy)phenyl) phosphate] | equal to or superior to that of PPP |  |  |
| COc1cc(OP(=O)([O-])Oc2ccc(C(=O)CCc3ccc(N)cc3)c(OC)c2)ccc1C(=O)CCc1ccc(N)cc1.[Na+] [sodium bis(4-(3-(4-aminophenyl)propionyl)-3-methoxyphenyl) phosphate] | equal to or superior to that of PPP |  |  |
| CCN(CC)c1ccc(C=C(C(=O)c2ccc(OP(=O)([O-])Oc3ccc(C(=O)C(=Cc4ccc(N(CC)CC)cc4)c4ccc(C)cc4)c(OC)c3)cc2OC)c2ccc(C)cc2)cc1.[Na+] [sodium bis(4-(3-(4-diethylaminophenyl)-2-(4-methylphenyl)acryloyl)-3-methoxyphenyl) phosphate] | equal to or superior to that of PPP |  |  |
| CCN(CC)c1ccc(CCC(=O)c2cc(C)c(OP(=O)([O-])Oc3c(C)cc(C(=O)CCc4ccc(N(CC)CC)cc4)cc3C)c(C)c2)cc1.[Na+] [sodium bis(4-(3-(4-diethylaminophenyl)propionyl)-2,6-dimethylphenyl) phosphate] | equal to or superior to that of PPP |  |  |
| Nc1cccc(C(=O)CCc2ccc(OP(=O)(O)Oc3ccc(CCC(=O)c4cccc(N)c4)cc3)cc2)c1 [sodium bis(4-(3-aminophenyl)-3-oxypropyl)phenyl) phosphate] | equal to or superior to that of PPP |  |  |
| O=C(CCCc1ccc(OP(=O)([O-])Oc2ccc(CCCC(=O)c3ccc(O)cc3O)cc2)cc1)c1ccc(O)cc1O.[Na+] [sodium bis(4-(4-(2,4-dihydroxyphenyl)-4-oxobutyl)phenyl) phosphate] | equal to or superior to that of PPP | inhibit SRS | same order |
| COc1ccc(CCC(=O)c2c(O)cccc2O)cc1OP(=O)([O-])Oc1cc(CCC(=O)c2c(O)cccc2O)ccc1OC.[Na+] [sodium bis(5-(3-(2,6-dihydroxyphenyl)-3-oxopropyl)-2-methoxyphenyl)phosphate] | equal to or superior to that of PPP | inhibit SRS | same order |
| O=C([O-])Cc1ccc(C(=O)CCc2cccc(OP(=O)([O-])Oc3cccc(CCC(=O)c4ccc(CC(=O)[O-])cc4)c3)c2)cc1.[Na+].[Na+].[Na+] [trisodium bis(3-(3-(4-carboxylatomethylphenyl)-3-oxopropyl)phenyl) phosphate] | equal to or superior to that of PPP | inhibit SRS | same order |
| O=C([O-])c1ccc(CCC(=O)c2cccc(OP(=O)([O-])Oc3cccc(C(=O)CCc4ccc(C(=O)[O-])cc4)c3)c2)cc1.[Na+].[Na+].[Na+] [trisodium bis(3-(3-(4-carboxylatophenyl)propionyl)phenyl) phosphate] | equal to or superior to that of PPP | inhibit SRS | same order |
